For one assay, the target named is T1, human recombinant HDAC1 (Homo sapiens, UniProt Q13547).
T1 construct: purchased Enzo Life Science, Inc. BML-SE456
Description: HDAC1 enzyme activity inhibition (HDAC Fluorimetric Drug Discovery Kit). Particulars: read-out: HDAC1. The format is biochemical. Summed up:
(§1)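 Fluorimetric deacetylase read-out. 5-fold compound dilutions; […] enzyme, 10 μM substrate; 30° C, 60 min; developer 30 min.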

A further assay has as its target T2, human recombinant HDAC6 (Homo sapiens, UniProt Q9UBN7).
T2 construct: purchased Calbiochem Inc. 382180
T2 sequence (Q9UBN7 1-1215): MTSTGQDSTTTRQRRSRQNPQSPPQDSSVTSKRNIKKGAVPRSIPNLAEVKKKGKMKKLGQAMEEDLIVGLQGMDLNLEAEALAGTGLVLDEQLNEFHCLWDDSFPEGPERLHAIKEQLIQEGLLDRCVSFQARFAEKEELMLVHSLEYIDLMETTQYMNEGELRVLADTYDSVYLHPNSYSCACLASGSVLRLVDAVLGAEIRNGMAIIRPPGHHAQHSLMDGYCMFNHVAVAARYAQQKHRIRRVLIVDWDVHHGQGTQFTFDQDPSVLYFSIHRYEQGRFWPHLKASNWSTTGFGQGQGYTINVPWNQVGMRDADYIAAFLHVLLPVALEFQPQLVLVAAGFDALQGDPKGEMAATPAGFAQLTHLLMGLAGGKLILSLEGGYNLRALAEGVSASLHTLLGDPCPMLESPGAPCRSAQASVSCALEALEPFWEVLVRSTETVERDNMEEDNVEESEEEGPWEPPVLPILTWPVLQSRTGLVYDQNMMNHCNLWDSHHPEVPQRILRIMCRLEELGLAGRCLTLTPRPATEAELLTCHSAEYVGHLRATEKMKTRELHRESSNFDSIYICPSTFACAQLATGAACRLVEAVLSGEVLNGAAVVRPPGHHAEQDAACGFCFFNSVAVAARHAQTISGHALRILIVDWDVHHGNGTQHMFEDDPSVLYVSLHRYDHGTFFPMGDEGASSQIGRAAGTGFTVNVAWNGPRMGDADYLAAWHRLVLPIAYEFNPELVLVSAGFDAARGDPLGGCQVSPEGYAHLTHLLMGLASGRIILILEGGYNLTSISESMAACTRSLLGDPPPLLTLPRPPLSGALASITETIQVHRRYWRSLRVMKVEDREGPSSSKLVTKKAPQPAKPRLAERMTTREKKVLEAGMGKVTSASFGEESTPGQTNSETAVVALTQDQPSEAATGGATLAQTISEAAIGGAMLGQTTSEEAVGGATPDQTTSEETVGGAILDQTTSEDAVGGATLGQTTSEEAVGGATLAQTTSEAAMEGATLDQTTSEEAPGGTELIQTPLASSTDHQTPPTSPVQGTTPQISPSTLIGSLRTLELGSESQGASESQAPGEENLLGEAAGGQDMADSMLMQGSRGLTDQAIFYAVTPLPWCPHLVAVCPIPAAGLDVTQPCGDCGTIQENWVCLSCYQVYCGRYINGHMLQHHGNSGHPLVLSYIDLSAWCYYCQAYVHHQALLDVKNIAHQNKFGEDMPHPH
Description: HDAC6 enzyme activity inhibition (HDAC Fluorimetric Drug Discovery Kit). The format is biochemical. The gist of the method:
as §1

For assay [1], the system named is hippocampal neurons from a Sprague-Dawley (SD) rat fetus. The experiment in a line: Effect of HDAC6-specific inhibitor on axonal transport of mitochondria in amyloid-beta treated neurons. The format is cell-based. The conditions noted are these: transport velocity of mitochondria in neuronal axon after normalization; vehicle = 100%, amyloid beta treatment group = 0%; compound treatment for three hours. The gist of the method: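 Rat E17-18 hippocampal neurons exposed to amyloid-beta fragments […]; after 24 h (day 8 in vitro) compound added for 3 h, mitochondria stained with MitoTracker Red CMXRos. Confocal imaging every 1 s for 1 min gave per-mitochondrion velocity, normalized vehicle = 100%, amyloid-beta = 0%.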

Where [2] appears, read: human recombinant HDAC1, IC50 calculated with GraphPad Prism.
Where [3] appears, read: human recombinant HDAC6, IC50 calculated with GraphPad Prism.
Setting [4] is: human recombinant HDAC1, Fluor de Lys substrate, 30° C. 60 minutes.
[5] abbreviates: human recombinant HDAC6, same protocol as HDAC1.

Data on 15 compounds can be found in patent publication US20230257372A1 (CHONG KUN DANG PHARMACEUTICAL CORP., priority 2020, published 2023).

Where two headings read alike, the source gives them in different places.

T1 sequence (Q13547 whole entry): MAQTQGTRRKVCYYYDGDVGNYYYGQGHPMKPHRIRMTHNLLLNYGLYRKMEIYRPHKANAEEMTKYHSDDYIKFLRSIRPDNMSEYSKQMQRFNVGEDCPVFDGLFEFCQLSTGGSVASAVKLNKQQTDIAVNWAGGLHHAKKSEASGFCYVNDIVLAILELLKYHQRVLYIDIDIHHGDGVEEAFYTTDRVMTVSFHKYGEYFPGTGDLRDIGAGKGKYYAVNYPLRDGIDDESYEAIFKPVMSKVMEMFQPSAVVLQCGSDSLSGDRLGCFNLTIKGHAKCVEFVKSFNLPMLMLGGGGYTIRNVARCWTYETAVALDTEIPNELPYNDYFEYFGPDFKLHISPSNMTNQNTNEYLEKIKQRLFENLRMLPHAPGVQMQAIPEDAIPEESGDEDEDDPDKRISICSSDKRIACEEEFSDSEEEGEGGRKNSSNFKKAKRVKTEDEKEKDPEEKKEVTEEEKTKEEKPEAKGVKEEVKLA

`CCN1CCN(c2cccc(-c3cn(Cc4ccc(-c5nnc(C(F)F)o5)cc4F)nn3)c2)CC1` [Compound 4373, 2-(difluoromethyl)-5-(4-((4-(3-(4-ethylpiperazin-1-yl)phenyl)-1H-1,2,3-triazol-1-yl)methyl)-3-fluorophenyl)-1,3,4-oxadiazole]: the IC50 was > 50000 nM at human recombinant HDAC1 (setting [2]) and 14.9 nM on human recombinant HDAC6 (setting [3]). In addition, at human recombinant HDAC6 (HDAC1 IC50 / HDAC6 IC50), the “HDAC6 selectivity (fold)” value is reported as 335 fold. Also, the “Velocity distribution (%)” value in assay [1] is reported as “*** (***, >100%)”.
In the case of `Fc1cc(-c2nnc(C(F)F)o2)cnc1Cn1cc(-c2ccccn2)nn1` [Compound 17983, 2-(difluoromethyl)-5-(5-fluoro-6-((4-(pyridin-2-yl)-1H-1,2,3-triazol-1-yl)methyl)pyridin-3-yl)-1,3,4-oxadiazole], the IC50 at human recombinant HDAC1 (setting [4]) is > 50000 nM; at human recombinant HDAC6 (setting [5]), 78.9 nM. Moreover, the “HDAC6 selectivity (fold)” value on human recombinant HDAC6 (HDAC6 over HDAC1) worked out at 633 fold. Moreover, the “Velocity distribution (%)” value in assay [1] is reported as “*** (***, >100%)”.
In the case of `CC1CCN(Cc2c[nH]c3cc(-c4cn(Cc5ccc(-c6nnc(C(F)F)o6)cn5)nn4)ccc23)CC1` [Compound 4111, 2-(difluoromethyl)-5-(6-((4-(3-((4-methylpiperidin-1-yl)methyl)-1H-indol-6-yl)-1H-1,2,3-triazol-1-yl)methyl)pyridin-3-yl)-1,3,4-oxadiazole], the results for the IC50 at human recombinant HDAC1 (setting [2]) and at human recombinant HDAC6 (setting [3]) were > 50000 nM and 10.9 nM, respectively. Also, the “HDAC6 selectivity (fold)” value at human recombinant HDAC6 (HDAC1 IC50 / HDAC6 IC50) came to 4587 fold. Further, the “Velocity distribution (%)” value in assay [1] is recorded as “** (**, 50%˜100%)”.
On to `CN(C)Cc1c[nH]c2cc(-c3cn(Cc4ccc(-c5nnc(C(F)F)o5)cn4)nn3)ccc12` [Compound 3962, 1-(6-(1-((5-(5-(difluoromethyl)-1,3,4-oxadiazol-2-yl)pyridin-2-yl)methyl)-1H-1,2,3-triazol-4-yl)-1H-indol-3-yl)-N,N-dimethylmethanamine], for which the IC50 at human recombinant HDAC1 (setting [2]) was > 50000 nM; at human recombinant HDAC6 (setting [3]) it was 10.8 nM. Also, the “HDAC6 selectivity (fold)” value on human recombinant HDAC6 (HDAC1 IC50 / HDAC6 IC50) is listed as 4629 fold. In assay [1], the “Velocity distribution (%)” value is listed as “*** (***, >100%)”.
Regarding `CC(C)N1CC(N2CCC(c3cccc(-c4cn(Cc5ccc(-c6nnc(C(F)F)o6)cc5F)nn4)c3)CC2)C1` [Compound 4296], the values for the IC50 on human recombinant HDAC1 (setting [2]) and on human recombinant HDAC6 (setting [3]) were > 50000 nM and 32.3 nM, respectively. Moreover, the “HDAC6 selectivity (fold)” value on human recombinant HDAC6 (HDAC1 IC50 / HDAC6 IC50) is listed as 1547 fold. Moreover, the “Velocity distribution (%)” value in assay [1] was “** (**, 50%˜100%)”.
Regarding `CC(=O)Nc1cccc(-c2cn(Cc3ccc(-c4nnc(C(F)F)o4)cc3F)nn2)c1` [Compound 3775, N-(3-(1-(4-(5-(difluoromethyl)-1,3,4-oxadiazol-2-yl)-2-fluorobenzyl)-1H-1,2,3-triazol-4-yl)phenyl)acetamide], the values for the IC50 on human recombinant HDAC1 (setting [2]) and on human recombinant HDAC6 (setting [3]) were > 50000 nM and 29.2 nM, respectively. For the same compound, at human recombinant HDAC6 (HDAC1 IC50 / HDAC6 IC50), the “HDAC6 selectivity (fold)” value was determined as 1712 fold. The “Velocity distribution (%)” value in assay [1] was “* (*, 0%˜50%)”.
For the compound `Fc1cc(-c2nnc(C(F)F)o2)ccc1Cn1cc(-c2ccc(CN3CCCC3)cn2)nn1` [Compound 17533, 2-(difluoromethyl)-5-(3-fluoro-4-((4-(5-(pyrrolidin-1-ylmethyl)pyridin-2-yl)-1H-1,2,3-triazol-1-yl)methyl)phenyl)-1,3,4-oxadiazole], the IC50 was > 50000 nM at human recombinant HDAC1 (setting [4]) and 22 nM on human recombinant HDAC6 (setting [5]). The “HDAC6 selectivity (fold)” value on human recombinant HDAC6 (HDAC6 over HDAC1) stood at 2272 fold. For the same compound, the “Velocity distribution (%)” value in assay [1] was “* (*, 0%˜50%)”.
For `CC(=O)N1CCN(c2cccc(-c3cn(Cc4ccc(-c5nnc(C(F)F)o5)cn4)nn3)c2)CC1` [Compound 3990, 1-(4-(3-(1-((5-(5-(difluoromethyl)-1,3,4-oxadiazol-2-yl)pyridin-2-yl)methyl)-1H-1,2,3-triazol-4-yl)phenyl)piperazin-1-yl)ethan-1-one], the IC50 at human recombinant HDAC1 (setting [2]) is > 50000 nM; on human recombinant HDAC6 (setting [3]), 19 nM. Further, the “HDAC6 selectivity (fold)” value at human recombinant HDAC6 (HDAC1 IC50 / HDAC6 IC50) is on record as 2631 fold. Moreover, the “Velocity distribution (%)” value in assay [1] is recorded as “** (**, 50%˜100%)”.
As for `Fc1cc(-c2cn(Cc3ccc(-c4nnc(C(F)F)o4)cn3)nn2)ccn1` [Compound 4185, 2-(difluoromethyl)-5-(6-((4-(2-fluoropyridin-4-yl)-1H-1,2,3-triazol-1-yl)methyl)pyridin-3-yl)-1,3,4-oxadiazole], the values for the IC50 at human recombinant HDAC1 (setting [2]) and on human recombinant HDAC6 (setting [3]) were > 50000 nM and 68.5 nM, respectively. Also, on human recombinant HDAC6 (HDAC1 IC50 / HDAC6 IC50), the “HDAC6 selectivity (fold)” value is reported as 729 fold. Moreover, in assay [1], the “Velocity distribution (%)” value is reported as “*** (***, >100%)”.
Take `Fc1cc(-c2nnc(C(F)F)o2)ccc1Cn1cc(-c2ccccc2)nn1` [Compound 3658, 2-(difluoromethyl)-5-(3-fluoro-4-((4-phenyl-1H-1,2,3-triazol-1-yl)methyl)phenyl)-1,3,4-oxadiazole]: the IC50 at human recombinant HDAC1 (setting [2]) was > 50000 nM; on human recombinant HDAC6 (setting [3]), 57.9 nM. Moreover, the “HDAC6 selectivity (fold)” value at human recombinant HDAC6 (HDAC1 IC50 / HDAC6 IC50) amounted to 863 fold. Also, in assay [1], the “Velocity distribution (%)” value is listed as “* (*, 0%˜50%)”.
With `CC(C)N1CCC(Nc2cccc(-c3cn(Cc4ccc(-c5nnc(C(F)F)o5)cc4F)nn3)c2F)CC1` [Compound 4432, N-(3-(1-(4-(5-(difluoromethyl)-1,3,4-oxadiazol-2-yl)-2-fluorobenzyl)-1H-1,2,3-triazol-4-yl)-2-fluorophenyl)-1-isopropylpiperidin-4-amine], the IC50 on human recombinant HDAC1 (setting [2]) is > 50000 nM; on human recombinant HDAC6 (setting [3]), 20.6 nM. Besides, the “HDAC6 selectivity (fold)” value on human recombinant HDAC6 (HDAC1 IC50 / HDAC6 IC50) is listed as 2427 fold. Also, in assay [1], the “Velocity distribution (%)” value is “*** (***, >100%)”.
As to `Fc1cc(-c2nnc(C(F)F)o2)ccc1Cn1cc(-c2ccc(CN3CC[C@H](F)C3)cn2)nn1` [Compound 18185, (S)-2-(difluoromethyl)-5-(3-fluoro-4-((4-(5-((3-fluoropyrrolidin-1-yl)methyl)pyridin-2-yl)-1H-1,2,3-triazol-1-yl)methyl)phenyl)-1,3,4-oxadiazole], the figures for the IC50 at human recombinant HDAC1 (setting [4]) and at human recombinant HDAC6 (setting [5]) were > 50000 nM and 62 nM, respectively. In addition, the “HDAC6 selectivity (fold)” value at human recombinant HDAC6 (HDAC6 over HDAC1) worked out at 806 fold. Besides, the “Velocity distribution (%)” value in assay [1] is given as “*** (***, >100%)”.
Regarding `CC(C)(F)C(=O)Nc1cccc(-c2cn(Cc3ccc(-c4nnc(C(F)F)o4)cn3)nn2)c1` [Compound 3987, N-(3-(1-((5-(5-(difluoromethyl)-1,3,4-oxadiazol-2-yl)pyridin-2-yl)methyl)-1H-1,2,3-triazol-4-yl)phenyl)-2-fluoro-2-methylpropanamide], the IC50 is > 50000 nM at human recombinant HDAC1 (setting [2]) and 9.1 nM on human recombinant HDAC6 (setting [3]). The “HDAC6 selectivity (fold)” value at human recombinant HDAC6 (HDAC1 IC50 / HDAC6 IC50) stood at 5494 fold. Besides, the “Velocity distribution (%)” value in assay [1] was “* (*, 0%˜50%)”.
In the case of `Cc1ccc(-c2cn(Cc3ccc(-c4nnc(C(F)F)o4)cn3)nn2)cc1` [Compound 3738, 2-(difluoromethyl)-5-(6-((4-(p-tolyl)-1H-1,2,3-triazol-1-yl)methyl)pyridin-3-yl)-1,3,4-oxadiazole], the IC50 at human recombinant HDAC1 (setting [2]) is > 50000 nM; on human recombinant HDAC6 (setting [3]), 44 nM. The “HDAC6 selectivity (fold)” value at human recombinant HDAC6 (HDAC1 IC50 / HDAC6 IC50) is listed as 1136 fold. In addition, the “Velocity distribution (%)” value in assay [1] is reported as “*** (***, >100%)”.
`Fc1cc(-c2nnc(C(F)F)o2)ccc1Cn1cc(-c2cn3ccccc3n2)nn1` [Compound 17201, 2-(difluoromethyl)-5-(3-fluoro-4-((4-(imidazo[1,2-a]pyridin-2-yl)-1H-1,2,3-triazol-1-yl)methyl)phenyl)-1,3,4-oxadiazole]: the IC50 at human recombinant HDAC1 (setting [4]) was > 50000 nM; at human recombinant HDAC6 (setting [5]), 78.2 nM. In addition, at human recombinant HDAC6 (HDAC6 over HDAC1), the “HDAC6 selectivity (fold)” value is on record as 639 fold. Further, in assay [1], the “Velocity distribution (%)” value is on record as “* (*, 0%˜50%)”.
